Test results from ChEMBL document CHEMBL3352808, “Anthraquinone-chalcone hybrids: synthesis, preliminary antiproliferative evaluation and DNA-interaction studies” (Eur J Med Chem, 2015).
The source made the active and inactive calls. No cut-off for these calls is given here.

Experiments:
A549 [1] = assay: Cytotoxicity against human A549 cells assessed as reduction in cell survival after 72 hrs by MTT assay; format: functional, cell-based; conditions: A549, 72 h
HeLa [2] = assay: Cytotoxicity against human HeLa cells assessed as reduction in cell survival after 72 hrs by MTT assay; format: functional, cell-based
[3] = Cytotoxicity against human LS174 cells assessed as reduction in cell survival after 72 hrs by MTT assay; format: functional, cell-based; conditions: LS174, 72 h
MRC5 = assay: Cytotoxicity against human MRC5 cells assessed as reduction in cell survival after 72 hrs by MTT assay; format: cell-based; conditions: MRC5, 72 h
Bos taurus [4] = organism: Bos taurus; assay: Displacement of Hoechst 33258 from calf thymus DNA at 30 to 60 uM by spectroscopy relative to control
Bos taurus [5] = organism: Bos taurus; assay: Displacement of ethidium bromide from calf thymus DNA at 30 to 60 uM by spectroscopy
HeLa [6] = assay: Induction of cell cycle arrest in human HeLa cells assessed as accumulation at S phase at 2 times cytotoxic IC50 level after 24 hrs by propidium iodide staining based flow cytometry (reference value: 14.5%); format: functional
Bos taurus [7] = organism: Bos taurus; assay: Displacement of Hoechst 33258 from calf thymus DNA at 30 to 60 uM by spectroscopy
A549 [8] = assay: Induction of apoptosis in human A549 cells assessed as increase in p18 Bax level at cytotoxic IC50 level after 24 hrs by Western blotting method; format: functional, cell-based
HeLa [9] = assay: Induction of cell cycle arrest in human HeLa cells assessed as accumulation at G2/M phase at cytotoxic IC50 level after 24 hrs by propidium iodide staining based flow cytometry (reference value: 24.77%); format: functional
Calf thymus DNA [10] = assay: Binding affinity to calf thymus DNA assessed as binding constant at 20 to 60 uM by spectroscopy; format: nucleic-acid assay; conditions: Bos taurus
HeLa [11] = assay: Induction of cell cycle arrest in human HeLa cells assessed as accumulation at G2/M phase at 2 times cytotoxic IC50 level after 24 hrs by propidium iodide staining based flow cytometry (reference value: 24.77%); format: functional
HeLa [12] = assay: Induction of cell cycle arrest in human HeLa cells assessed as accumulation at S phase at cytotoxic IC50 level after 24 hrs by propidium iodide staining based flow cytometry (reference value: 14.5%); format: functional
Escherichia coli [13] = assay: Inhibition of Fe(2+)-induced DNA cleavage of Escherichia coli pUC19 at 1:2 compound to iron ratio by agarose gel elctrophoresis method
Escherichia coli [14] = assay: Inhibition of Fe(2+)-induced DNA cleavage of Escherichia coli pUC19 at 1:1 compound to iron ratio by agarose gel elctrophoresis method
HeLa [15] = assay: Induction of cell cycle arrest in human HeLa cells assessed as accumulation at subG1 phase at cytotoxic IC50 level after 24 hrs by propidium iodide staining based flow cytometry (reference value: 2.53%); format: functional
HeLa [16] = assay: Induction of caspase-3 activation in human HeLa cells assessed as increase in spectrin cleavage product level at cytotoxic IC50 level after 24 hrs by Western blotting method; format: functional, cell-based
HeLa [17] = assay: Induction of apoptosis in human HeLa cells assessed as caspase-3 activation at cytotoxic IC50 level after 24 hrs by Western blotting method; format: functional, cell-based
Calf thymus DNA [18] = assay: Binding affinity to calf thymus DNA assessed as hyperchromism at 20 to 60 uM by spectroscopy; format: nucleic-acid assay; conditions: Bos taurus
HeLa [19] = assay: Induction of cell cycle arrest in human HeLa cells assessed as accumulation at subG1 phase at 2 times cytotoxic IC50 level after 24 hrs by propidium iodide staining based flow cytometry (reference value: 2.53%); format: functional
HeLa [20] = assay: Induction of cell cycle arrest in human HeLa cells assessed as accumulation at G1 phase at 2 times cytotoxic IC50 level after 24 hrs by propidium iodide staining based flow cytometry (reference value: 51.33%); format: functional
HeLa [21] = assay: Induction of apoptosis in human HeLa cells assessed as increase in p18 Bax level at cytotoxic IC50 level after 24 hrs by Western blotting method; format: functional, cell-based
Escherichia coli [22] = assay: Induction of DNA cleavage of Escherichia coli pUC19 at 2 mM by agarose gel elctrophoresis method
A549 [23] = assay: Induction of apoptosis in human A549 cells assessed as caspase-3 activation at cytotoxic IC50 level after 24 hrs by Western blotting method; format: functional, cell-based
HeLa [24] = assay: Induction of cell cycle arrest in human HeLa cells assessed as accumulation at G1 phase at cytotoxic IC50 level after 24 hrs by propidium iodide staining based flow cytometry (reference value: 51.33%); format: functional
A549 [25] = assay: Induction of caspase-3 activation in human A549 cells assessed as increase in spectrin cleavage product level at cytotoxic IC50 level after 24 hrs by Western blotting method; format: functional, cell-based

Work on `O=C(/C=C/c1ccc(/C=C/C(=O)c2cccc3c2C(=O)c2ccccc2C3=O)cc1)c1ccc(F)cc1` yielded an IC50 (A549 [1]) of 36.3 µM, an IC50 (HeLa [2]) of 2.62 µM and an IC50 [3] of 10.6 µM. For the same compound, the IC50 (MRC5) was 37 µM.

Work on `COc1ccc(C(=O)/C=C/c2ccc(/C=C/C(=O)c3cccc4c3C(=O)c3ccccc3C4=O)cc2)cc1` yielded an IC50 (A549 [1]) of 47.7 µM, an IC50 (HeLa [2]) of 4.96 µM and an IC50 [3] of 34.1 µM. The IC50 (MRC5) was 47.4 µM.

For `O=C(/C=C/c1ccc(/C=C/C(=O)c2cccc3c2C(=O)c2ccccc2C3=O)cc1)c1ccccc1`, the Imax (Bos taurus [4]) was 52%, the IC50 (A549 [1]) was 26.2 µM and the Activity (Bos taurus [5]) was “inactive”. For the same compound, the Activity (HeLa [6]) was 23.04%, the inhibition (Bos taurus [7]) was “Dose-dependent effect” and the Activity (A549 [8]) was “inactive”. It also gave an Activity (HeLa [9]) of 35.25%, a Kb (Calf thymus DNA [10]) of 2.65 ×10³ /M and an Activity (HeLa [11]) of 34.02%. The Activity (HeLa [12]) was 17.06%, the inhibition (Escherichia coli [13]) was “inactive” and the inhibition (Escherichia coli [14]) was “Active”. The Activity (HeLa [15]) was 4.66%, the Activity (HeLa [16]) was “Active” and the Activity (HeLa [17]) was “Active”. For the same compound, the IC50 (HeLa [2]) was 2.41 µM, the Activity (Calf thymus DNA [18]) was “Active” and the Activity (HeLa [19]) was 4.96%. The Activity (HeLa [20]) was 36.61%, the Activity (HeLa [21]) was “Active” and the IC50 [3] was 4.56 µM. For the same compound, the Activity (Escherichia coli [22]) was “inactive”, the IC50 (MRC5) was 33.6 µM and the Activity (A549 [23]) was “Active”. The Activity (HeLa [24]) was 37.54%.

Work on `COc1ccccc1C(=O)/C=C/c1ccc(/C=C/C(=O)c2cccc3c2C(=O)c2ccccc2C3=O)cc1` yielded an IC50 (A549 [1]) of 28.1 µM, an IC50 (HeLa [2]) of 2.7 µM and an IC50 [3] of 10.8 µM. The IC50 (MRC5) was 43.6 µM.

In the case of `O=C(/C=C/c1ccc(/C=C/C(=O)c2cccc3c2C(=O)c2ccccc2C3=O)cc1)c1ccccc1[N+](=O)[O-]`, the Imax (Bos taurus [4]) is reported as 41%, the IC50 (A549 [1]) is reported as 28.8 µM and the Activity (Bos taurus [5]) is reported as “inactive”. The Activity (HeLa [6]) was 25.39%, the inhibition (Bos taurus [7]) was “Dose-dependent effect” and the Activity (A549 [8]) was “inactive”. It also gave an Activity (HeLa [9]) of 31.41%, a Kb (Calf thymus DNA [10]) of 2.51 ×10³ /M and an Activity (HeLa [11]) of 34.15%. The Activity (HeLa [12]) was 17.66%, the Activity (HeLa [15]) was 4.65% and the Activity (HeLa [16]) was “Active”. For the same compound, the Activity (HeLa [17]) was “Active”, the IC50 (HeLa [2]) was 2.73 µM and the Activity (A549 [25]) was “Active”. For the same compound, the Activity (Calf thymus DNA [18]) was “Active”, the Activity (HeLa [19]) was 5.14% and the Activity (HeLa [20]) was 35.58%. For the same compound, the Activity (HeLa [21]) was “Active”, the IC50 [3] was 6.44 µM and the Activity (Escherichia coli [22]) was “inactive”. For the same compound, the IC50 (MRC5) was 48.8 µM, the Activity (A549 [23]) was “Active” and the Activity (HeLa [24]) was 41.5%.

`O=C(/C=C/c1ccccc1)c1cccc2c1C(=O)c1ccccc1C2=O` showed an IC50 (A549 [1]) of 35.5 µM, an IC50 (HeLa [2]) of 14.8 µM and an IC50 [3] of 31.3 µM. For the same compound, the IC50 (MRC5) was 46.4 µM.

With `Cc1cccc(/C=C/C(=O)c2cccc3c2C(=O)c2ccccc2C3=O)c1` the IC50 (A549 [1]) was 33 µM, the IC50 (HeLa [2]) was 11.6 µM and the IC50 [3] was 21.5 µM. For the same compound, the IC50 (MRC5) was 33.7 µM.

`COc1cccc(C(=O)/C=C/c2ccc(/C=C/C(=O)c3cccc4c3C(=O)c3ccccc3C4=O)cc2)c1` showed an IC50 (A549 [1]) of 30.9 µM, an IC50 (HeLa [2]) of 2.77 µM and an IC50 [3] of 16.7 µM. The IC50 (MRC5) was 46.5 µM.

`Cc1ccc(/C=C/C(=O)c2cccc3c2C(=O)c2ccccc2C3=O)cc1` gave an IC50 (A549 [1]) of 38.3 µM, an IC50 (HeLa [2]) of 34.1 µM and an IC50 [3] of 48.2 µM. It also gave an IC50 (MRC5) of 50.5 µM.

`Cc1ccccc1/C=C/C(=O)c1cccc2c1C(=O)c1ccccc1C2=O` gave an IC50 (A549 [1]) of 44.6 µM, an IC50 (HeLa [2]) of 12.1 µM and an IC50 [3] of 45.2 µM. For the same compound, the IC50 (MRC5) was 48.6 µM.

Compound `O=C(/C=C/c1ccc(/C=C/C(=O)c2cccc3c2C(=O)c2ccccc2C3=O)cc1)c1ccccc1F` has an IC50 (A549 [1]) of 31.6 µM, an IC50 (HeLa [2]) of 2.66 µM and an IC50 [3] of 17.8 µM. For the same compound, the IC50 (MRC5) was 31.5 µM.

Compound `Cc1cccc(C(=O)/C=C/c2ccc(/C=C/C(=O)c3cccc4c3C(=O)c3ccccc3C4=O)cc2)c1` has an IC50 (A549 [1]) of 33.7 µM, an IC50 (HeLa [2]) of 2.45 µM and an IC50 [3] of 11.8 µM. It also gave an IC50 (MRC5) of 52 µM.

With `Cc1ccc(C(=O)/C=C/c2ccc(/C=C/C(=O)c3cccc4c3C(=O)c3ccccc3C4=O)cc2)cc1` the IC50 (A549 [1]) was 24.2 µM, the IC50 (HeLa [2]) was 2.64 µM and the IC50 [3] was 22.6 µM. For the same compound, the IC50 (MRC5) was 38.5 µM.

For `Cc1ccccc1C(=O)/C=C/c1ccc(/C=C/C(=O)c2cccc3c2C(=O)c2ccccc2C3=O)cc1`, the Imax (Bos taurus [4]) was 61%, the IC50 (A549 [1]) was 29.1 µM and the Activity (Bos taurus [5]) was “inactive”. The Activity (HeLa [6]) was 24.44%, the inhibition (Bos taurus [7]) was “Dose-dependent effect” and the Activity (A549 [8]) was “inactive”. The Activity (HeLa [9]) was 32.79%, the Kb (Calf thymus DNA [10]) was 1.36 ×10³ /M and the Activity (HeLa [11]) was 31.12%. For the same compound, the Activity (HeLa [12]) was 17.29%, the Activity (HeLa [15]) was 5.56% and the Activity (HeLa [16]) was “Active”. For the same compound, the Activity (HeLa [17]) was “Active”, the IC50 (HeLa [2]) was 2.36 µM and the Activity (A549 [25]) was “Active”. For the same compound, the Activity (Calf thymus DNA [18]) was “Active”, the Activity (HeLa [19]) was 7.89% and the Activity (HeLa [20]) was 36.75%. For the same compound, the Activity (HeLa [21]) was “Active”, the IC50 [3] was 3.13 µM and the Activity (Escherichia coli [22]) was “inactive”. The IC50 (MRC5) was 41.9 µM, the Activity (A549 [23]) was “Active” and the Activity (HeLa [24]) was 38.76%.

Work on `O=C(/C=C/c1ccc(Cl)cc1)c1cccc2c1C(=O)c1ccccc1C2=O` yielded an IC50 (A549 [1]) of 35.3 µM, an IC50 (HeLa [2]) of 33.1 µM and an IC50 [3] of 47.2 µM. It also gave an IC50 (MRC5) of 52 µM.
